What was measured:
[1] = target: T1, BTK (Homo sapiens, UniProt Q06187); assay: BTK degradation in Ramos cells by western blot; format: cell-based; details: for BTK degradation by parent molecules: GDC-0853 and/or pomalidomide, 3000 nM to 0.15 nM, Figure S2
[2] = target: T1, BTK; assay: NanoBRET live-cell target engagement of BTK in HEK293 cells; format: cell-based; details: for Hill slope, BTK target engagement: number in parentheses, 37 °C
[3] = target: CRBN (Homo sapiens, UniProt Q96SW2); assay: NanoBRET live-cell target engagement of CRBN in HEK293 cells; format: cell-based; details: number in parentheses, 37 °C
CRBN, sequence (Q96SW2 whole entry): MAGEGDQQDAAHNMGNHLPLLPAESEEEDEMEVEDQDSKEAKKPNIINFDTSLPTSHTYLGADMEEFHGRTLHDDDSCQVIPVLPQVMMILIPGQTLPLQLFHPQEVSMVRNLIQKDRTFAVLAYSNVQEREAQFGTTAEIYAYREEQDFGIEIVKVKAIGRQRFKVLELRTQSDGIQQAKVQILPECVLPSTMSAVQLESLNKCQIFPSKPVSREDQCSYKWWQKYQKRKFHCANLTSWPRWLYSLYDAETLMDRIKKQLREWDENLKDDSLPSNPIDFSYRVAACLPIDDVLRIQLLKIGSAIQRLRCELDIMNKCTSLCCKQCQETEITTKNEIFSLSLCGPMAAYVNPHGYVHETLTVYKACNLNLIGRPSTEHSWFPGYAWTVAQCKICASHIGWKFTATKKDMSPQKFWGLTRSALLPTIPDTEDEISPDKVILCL

[4] = target: ternary complex between BTK and CRBN (Homo sapiens, UniProt Q06187+Q96SW2); assay: NanoBRET ternary complex formation assay in HEK293 cells; format: cell-based; details: for Ternary complex formation (in words): live-cell NanoBRET
ternary complex between BTK and CRBN, sequence (Q06187 whole entry): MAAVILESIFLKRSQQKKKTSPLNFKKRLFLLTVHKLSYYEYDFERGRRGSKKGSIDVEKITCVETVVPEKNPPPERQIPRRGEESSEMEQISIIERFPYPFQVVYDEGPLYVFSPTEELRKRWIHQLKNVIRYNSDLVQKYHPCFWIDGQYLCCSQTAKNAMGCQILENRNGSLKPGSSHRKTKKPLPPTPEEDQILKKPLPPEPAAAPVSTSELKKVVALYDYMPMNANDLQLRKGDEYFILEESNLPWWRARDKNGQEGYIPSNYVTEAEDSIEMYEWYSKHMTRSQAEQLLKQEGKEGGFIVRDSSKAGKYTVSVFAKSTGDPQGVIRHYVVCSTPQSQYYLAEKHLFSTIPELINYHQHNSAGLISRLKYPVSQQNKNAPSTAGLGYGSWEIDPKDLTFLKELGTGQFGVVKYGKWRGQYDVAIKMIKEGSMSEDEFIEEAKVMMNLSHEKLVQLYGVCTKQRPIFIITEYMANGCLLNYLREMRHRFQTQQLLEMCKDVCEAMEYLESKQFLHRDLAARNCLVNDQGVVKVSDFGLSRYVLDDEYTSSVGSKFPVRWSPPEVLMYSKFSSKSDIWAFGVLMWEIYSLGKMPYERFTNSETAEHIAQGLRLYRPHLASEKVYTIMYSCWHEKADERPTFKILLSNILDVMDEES
ternary complex between BTK and CRBN, sequence (Q96SW2 whole entry): as the sequence (Q96SW2 whole entry) above

[5] = test system: TMD8 cells; assay: Apoptosis by Annexin-V/PI flow cytometry, TMD8 cells; format: cell-based; details: 48 h; for Induction of apoptosis: TMD8 cells, 3000 nM to 0.15 nM
[6] = test system: Mino cells; assay: Apoptosis by Annexin-V/PI flow cytometry, Mino cells; format: cell-based; details: 48 h, 3000 nM to 0.15 nM
[7] = test system: BCR signaling pathway; assay: BCR signaling pathway western blots in TMD8 and Mino cells; format: cell-based; details: 48 h, stimulated with anti-human IgM
[8] = test system: CSK, SYK, FRK, HCK, LYN, BAZ1B, TYK2, and Fes/Fps; assay: Label-free proteomics in TMD8 cells: other kinases; format: cell-based, human; details: 111 nM, 6 h
[9] = test system: IKZF1 and IKZF3; assay: Label-free proteomics in TMD8 cells: neo-substrates IKZF1/3; format: cell-based, human; details: 111 nM, 6 h
[10] = target: GSPT1 (Homo sapiens, UniProt P15170); assay: Label-free proteomics in TMD8 cells: GSPT1; format: cell-based; details: 111 nM, 6 h
GSPT1, sequence (Q96SW2 whole entry partner): as the sequence (Q96SW2 whole entry) above
GSPT1, sequence (Q16531 whole entry partner): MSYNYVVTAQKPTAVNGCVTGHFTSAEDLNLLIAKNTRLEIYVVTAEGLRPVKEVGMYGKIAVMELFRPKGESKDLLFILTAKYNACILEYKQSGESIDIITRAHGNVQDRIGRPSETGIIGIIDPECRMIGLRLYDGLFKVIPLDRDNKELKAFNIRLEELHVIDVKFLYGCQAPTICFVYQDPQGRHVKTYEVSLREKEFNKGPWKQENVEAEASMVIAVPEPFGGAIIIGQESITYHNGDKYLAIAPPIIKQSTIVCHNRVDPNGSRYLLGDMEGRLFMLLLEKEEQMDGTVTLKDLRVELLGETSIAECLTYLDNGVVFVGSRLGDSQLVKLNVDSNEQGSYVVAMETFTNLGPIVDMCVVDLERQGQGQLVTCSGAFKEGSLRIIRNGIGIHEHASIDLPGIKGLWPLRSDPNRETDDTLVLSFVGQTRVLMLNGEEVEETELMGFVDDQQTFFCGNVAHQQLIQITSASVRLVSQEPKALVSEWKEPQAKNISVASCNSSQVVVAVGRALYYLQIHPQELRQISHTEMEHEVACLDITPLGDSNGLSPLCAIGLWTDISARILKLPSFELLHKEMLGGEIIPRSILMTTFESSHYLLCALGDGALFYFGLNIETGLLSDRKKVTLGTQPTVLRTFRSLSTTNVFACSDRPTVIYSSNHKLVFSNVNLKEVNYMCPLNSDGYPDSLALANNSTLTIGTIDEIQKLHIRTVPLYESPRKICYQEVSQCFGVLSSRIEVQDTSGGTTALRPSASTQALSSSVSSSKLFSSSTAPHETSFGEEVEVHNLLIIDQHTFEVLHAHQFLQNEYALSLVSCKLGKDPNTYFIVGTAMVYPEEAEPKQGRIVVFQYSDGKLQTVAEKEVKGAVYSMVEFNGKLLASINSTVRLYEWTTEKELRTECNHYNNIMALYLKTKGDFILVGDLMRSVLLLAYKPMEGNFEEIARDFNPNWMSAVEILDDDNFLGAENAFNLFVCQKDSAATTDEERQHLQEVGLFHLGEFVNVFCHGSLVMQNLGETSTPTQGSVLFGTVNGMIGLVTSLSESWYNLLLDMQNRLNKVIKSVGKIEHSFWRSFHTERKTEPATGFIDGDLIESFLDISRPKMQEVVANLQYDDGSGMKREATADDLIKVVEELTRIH
GSPT1, sequence (P15170 whole entry): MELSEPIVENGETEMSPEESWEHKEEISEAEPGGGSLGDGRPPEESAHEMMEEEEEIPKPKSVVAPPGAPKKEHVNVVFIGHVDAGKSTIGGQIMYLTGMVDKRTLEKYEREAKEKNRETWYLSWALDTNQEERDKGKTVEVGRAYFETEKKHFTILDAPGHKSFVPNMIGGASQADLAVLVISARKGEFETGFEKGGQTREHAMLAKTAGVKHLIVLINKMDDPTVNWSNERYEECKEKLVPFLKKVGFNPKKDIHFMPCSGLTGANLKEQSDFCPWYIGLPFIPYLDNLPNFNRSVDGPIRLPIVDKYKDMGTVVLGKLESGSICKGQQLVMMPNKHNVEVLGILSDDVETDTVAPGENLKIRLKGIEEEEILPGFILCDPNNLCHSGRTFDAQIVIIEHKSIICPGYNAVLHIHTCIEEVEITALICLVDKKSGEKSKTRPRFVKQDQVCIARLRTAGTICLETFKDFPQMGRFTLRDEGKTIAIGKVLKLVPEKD

[11] = test system: caspase-3, PARP, Bcl-2, Mcl-1; assay: Apoptosis pathway proteins by western blot in TMD8 and Mino cells; format: cell-based; details: 48 h
[12] = target: T1, BTK; assay: BTK degradation in seven B-cell malignant cell lines; format: cell-based; details: Figure S4
[13] = test system: TMD8 cells; assay: Cell viability, CellTiter-Glo 2.0, TMD8 cells; format: cell-based; details: read-out: TMD8 Cells IC50, 48 h
[14] = test system: Mino cells; assay: Cell viability, CellTiter-Glo 2.0, Mino cells; format: cell-based; details: read-out: Mino Cells IC50, 48 h (Figure 6) or 72 h (method)

T1 sequence (Q06187 whole entry): as the sequence (Q06187 whole entry) above

Row | Compound | Hill slope, BTK target engagement [2] | Hill slope, CRBN target engagement [3] | Induction of apoptosis [5] | Induction of apoptosis [6] | Effect on abundance of other kinases [8] | Degradation of neo-substrates IKZF1 and IKZF3 [9] | Effect on levels of GSPT1 [10] | other results
1 | C[C@H]1CN(C(=O)CNc2cccc3c2CN(C2CCC(=O)NC2=O)C3=O)CCN1c1ccc(Nc2cc(-c3ccnc(N4CCn5c(cc6c5CC(C)(C)C6)C4=O)c3CO)cn(C)c2=O)nc1 (stereo partly drawn) [PTD12, 3-(4-((2-((S)-4-(6-((2’-(7,7-dimethyl-1-oxo-1,3,4,6,7,8-hexahydro-2H-cyclopenta[4,5]pyrrolo[1,2-a]pyrazin-2-yl)-3’-(hydroxymethyl)-1-methyl-6-oxo-1,6-dihydro-[3,4’-bipyridin]-5-yl)amino)pyridin-3-yl)-3-methylpiperazin-1-yl)-2-oxoethyl)amino)-1-oxoisoindolin-2-yl)piperidine-2,6-dione] | – | – | – | – | – | – | – | Decrease in degradation activity compared to PTD10 ([1]; DC50 ratio): ~ 8 fold
2 | C[C@H]1CN(C(=O)c2cccc3c2C(=O)N(C2CCC(=O)NC2=O)C3=O)CCN1c1ccc(Nc2cc(-c3ccnc(N4CCn5c(cc6c5CC(C)(C)C6)C4=O)c3CO)cn(C)c2=O)nc1 (stereo partly drawn) [PTD13, 4-((S)-4-(6-((2’-(7,7-dimethyl-1-oxo-1,3,4,6,7,8-hexahydro-2H-cyclopenta[4,5]pyrrolo[1,2-a]pyrazin-2-yl)-3’-(hydroxymethyl)-1-methyl-6-oxo-1,6-dihydro-[3,4’-bipyridin]-5-yl)amino)pyridin-3-yl)-3-methylpiperazine-1-carbonyl)-2-(2,6-dioxopiperidin-3-yl)isoindoline-1,3-dione] | 1.4 | 1.0 | – | – | – | – | – | Ternary complex formation (in words) [4]: no ternary complex was observed
3 | C[C@H]1CN(C2COC2)CCN1c1ccc(Nc2cc(-c3ccnc(N4CCn5c(cc6c5CC(C)(C)C6)C4=O)c3CO)cn(C)c2=O)nc1 [GDC-0853, fenebrutinib, reference compound] | – | – | a dose-dependent effect was observed | did not cause apoptosis | – | – | – | BTK degradation by parent molecules ([1]; Ramos cells): no BTK degradation was observed; Effect on BCR signaling pathway (p-PLCγ2, p-BTK, p-AKT, p-NF-κB, PLCγ2, AKT, NF-κB) [7]: less prominent
4 | C[C@H]1CN(C(=O)CCCCCCCCCCCNc2cccc3c2C(=O)N(C2CCC(=O)NC2=O)C3=O)CCN1c1ccc(Nc2cc(-c3ccnc(N4CCn5c(cc6c5CC(C)(C)C6)C4=O)c3CO)cn(C)c2=O)nc1 (stereo partly drawn) [PTD15, 4-((12-((S)-4-(6-((2’-(7,7-dimethyl-1-oxo-1,3,4,6,7,8-hexahydro-2H-cyclopenta[4,5]pyrrolo[1,2-a]pyrazin-2-yl)-3’-(hydroxymethyl)-1-methyl-6-oxo-1,6-dihydro-[3,4’-bipyridin]-5-yl)amino)pyridin-3-yl)-3-methylpiperazin-1-yl)-12-oxododecyl)amino)-2-(2,6-dioxopiperidin-3-yl)isoindoline-1,3-dione] | 1.3 | 0.5 | – | – | – | – | – | Fold less potent than GDC-0853 at engaging BTK ([2]; NanoBRET): 250 fold
5 | Cc1ncsc1-c1ccc(CNC(=O)[C@@H]2C[C@@H](O)CN2C(=O)[C@@H](NC(=O)COCCOCCCCCCC(=O)N2CCN(c3ccc(Nc4cc(-c5ccnc(N6CCn7c(cc8c7CC(C)(C)C8)C6=O)c5CO)cn(C)c4=O)nc3)[C@@H](C)C2)C(C)(C)C)cc1 [PTD3, (2S,4R)-1-((S)-2-(2-(2-((7-((S)-4-(6-((2’-(7,7-dimethyl-1-oxo-1,3,4,6,7,8-hexahydro-2H-cyclopenta[4,5]pyrrolo[1,2-a]pyrazin-2-yl)-3’-(hydroxymethyl)-1-methyl-6-oxo-1,6-dihydro-[3,4’-bipyridin]-5-yl)amino)pyridin-3-yl)-3-methylpiperazin-1-yl)-7-oxoheptyl)oxy)ethoxy)acetamido)-3,3-dimethylbutanoyl)-4-hydroxy-N-(4-(4-methylthiazol-5-yl)benzyl)pyrrolidine-2-carboxamide] | – | – | – | – | – | – | – | BTK degradation (VHL-based PROTAC) ([1]; Ramos and JeKo-1 cell lines, 17 h, concentrations lower than 3000 nM, Figure S1): no degradation was observed
6 | C[C@H]1CN(C(=O)CNc2cccc3c2C(=O)N(C2CCC(=O)NC2=O)C3=O)CCN1c1ccc(Nc2cc(-c3ccnc(N4CCn5c(cc6c5CC(C)(C)C6)C4=O)c3CO)cn(C)c2=O)nc1 (stereo partly drawn) [PTD10, 4-((2-((S)-4-(6-((2’-(7,7-dimethyl-1-oxo-1,3,4,6,7,8-hexahydro-2H-cyclopenta[4,5]pyrrolo[1,2-a]pyrazin-2-yl)-3’-(hydroxymethyl)-1-methyl-6-oxo-1,6-dihydro-[3,4’-bipyridin]-5-yl)amino)pyridin-3-yl)-3-methylpiperazin-1-yl)-2-oxoethyl)amino)-2-(2,6-dioxopiperidin-3-yl)isoindoline-1,3-dione] | 1.9 | 1.0 | induce apoptosis in a dose-dependent manner | induce apoptosis in a dose-dependent manner | did not affect the abundance of other kinases | degrade | did not affect the levels | Concentration at which Hook effect was observed ([1]; BTK degradation, Figure 3): > 333 nM; BTK degradation on co-treatment with competitor ([1]; Ramos cells, 111 nM PTD10 with 1 μM GDC-0853 or 20 μM iberdomide (CC-220), 17 h): BTK degradation was completely blocked; BTK degradation after pre-treatment with bortezomib or MLN-4924 ([1]; Ramos cells, pre-treated 2 h, then 111 nM PTD10 for 4 h): inhibition of BTK degradation; Ternary complex formation (in words) [4]: prominent ternary complex formation; Ternary Complex Formation (maximum) ([4]; maximum ternary complex formation setting the BRET ratio for PTD10 at 100%): 100%; Concentration at which robust apoptosis was detected ([5]; TMD8 and Mino cell lines): 333 nM; Effect on BCR signaling pathway (p-PLCγ2, p-BTK, p-AKT, p-NF-κB, PLCγ2, AKT, NF-κB) [7]: Robust downregulation was observed; Levels of Bcl-2 and Mcl-1 [11]: significant down-regulation; Levels of cleaved-PARP and cleaved caspase-3 [11]: increase; BTK degradation in B-cell malignant cell lines [12]: potent degradation effects
7 | C[C@H]1CN(C(=O)COc2cccc3c2C(=O)N(C2CCC(=O)NC2=O)C3=O)CCN1c1ccc(Nc2cc(-c3ccnc(N4CCn5c(cc6c5CC(C)(C)C6)C4=O)c3CO)cn(C)c2=O)nc1 (stereo partly drawn) [PTD14, 4-(2-((S)-4-(6-((2’-(7,7-dimethyl-1-oxo-1,3,4,6,7,8-hexahydro-2H-cyclopenta[4,5]pyrrolo[1,2-a]pyrazin-2-yl)-3’-(hydroxymethyl)-1-methyl-6-oxo-1,6-dihydro-[3,4’-bipyridin]-5-yl)amino)pyridin-3-yl)-3-methylpiperazin-1-yl)-2-oxoethoxy)-2-(2,6-dioxopiperidin-3-yl)isoindoline-1,3-dione] | – | – | – | – | did not affect the abundance of other kinases | no degradation | did not affect the levels | –
8 | Nc1cccc2c1C(=O)N(C1CCC(=O)NC1=O)C2=O (stereo not shown) [Pomalidomide, pomalidomide, reference compound] | – | – | little effect | induced apoptosis in Mino cells in a dose-dependent manner | – | – | – | BTK degradation by parent molecules ([1]; Ramos cells): no BTK degradation was observed
9 | 4-((2-(2-(2-(2-azidoethoxy)ethoxy)ethoxy)ethyl)amino)-2-(2,6-dioxopiperidin-3-yl)isoindoline-1,3-dione [P13I, reference compound] | – | – | – | – | significant degradation of some off-targets, specifically, CSK and FRK | degrade | did not affect the levels | IC50 [13]: 15 ± 2.8 nM; IC50 [14]: 10.4 ± 2.4 nM

— article PMC10332445 (Journal of medicinal chemistry, 2023)
